From patent US8669271B2 (Boehringer Ingelheim International GmbH, priority 2010, dated 2014) come the findings set out here.

The structures appear in SMILES notation.

The experiment deals with T1, human GPR119 (Homo sapiens, UniProt Q8TDV5).
T1 construct: expression vector for human GPR119 cDNA (Acc. No. NP_848566); expressed in transfected cells
T1 sequence (Q8TDV5 1-335): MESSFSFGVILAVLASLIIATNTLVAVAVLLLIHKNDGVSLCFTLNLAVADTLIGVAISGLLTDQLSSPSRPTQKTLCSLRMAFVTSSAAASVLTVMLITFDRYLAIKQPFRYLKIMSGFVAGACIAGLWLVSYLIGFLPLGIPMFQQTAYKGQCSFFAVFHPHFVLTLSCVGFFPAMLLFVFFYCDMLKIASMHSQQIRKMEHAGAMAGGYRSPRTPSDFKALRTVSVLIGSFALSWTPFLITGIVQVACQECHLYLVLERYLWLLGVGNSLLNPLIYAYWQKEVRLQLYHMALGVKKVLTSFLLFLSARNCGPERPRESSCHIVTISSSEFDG
As to the kind of experiment: AlphaScreen cAMP assay in Min-6/hGPR119 cells (activation of GPR119, intracellular cAMP). Conditions: MIN6 cells stably transfected with human GPR119; cAMP by AlphaScreen after 45 minutes incubation at room temperature. Type of experiment: cell-based. A digest of the protocol:
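MIN6 cells stably expressing human GPR119, seeded 24 h before treatment; compounds applied 45 min at ~20 °C in Hepes-buffered saline pH 7.4 with 0.5 mM IBMX, 0.1% BSA, 1% DMSO final. Intracellular cAMP measured by AlphaScreen.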
Turning to `CC(C)OC(=O)N1CCC(C2Cc3cc(-c4ccc(C(=O)NCC5CCCO5)cc4)ccc3O2)CC1` (centres unmarked) [Example 153], the EC50 was 17 nM. In other words, the double-digit nanomolar range.
Take `CC(C)OC(=O)N1CCC(C2Cc3cc(-c4ccc(S(C)(=O)=O)cc4)ccc3O2)CC1` (centres unmarked) [Example 1, 4-[5-(4-Methanesulfonyl-phenyl)-2,3-dihydro-benzofuran-2-yl]-piperidine-1-carboxylic acid isopropyl ester]: the 50% effective concentration (EC50) is 32 nM.
With `CC(C)(C)OC(=O)N1CCC([C@]2(C)Cc3cc(-c4ccc(S(C)(=O)=O)cc4)ncc3O2)CC1` [Example 83, (S)-4-[5-(4-Methanesulfonyl-phenyl)-2-methyl-2,3-dihydro-furo[2,3-c]pyridin-2-yl]-piperidine-1-carboxylic acid tert-butyl ester] the figure was 4 nM; with `CC(=O)Nc1ccc(-c2ccc3c(c2)CC(C2CCN(C(=O)OC(C)C)CC2)O3)nn1` (centres unmarked) [Example 162, 4-[5-(6-Acetylamino-pyridazin-3-yl)-2,3-dihydro-benzofuran-2-yl]-piperidine-1-carboxylic acid isopropyl ester], 483 nM.
With `CNc1ncc(-c2ccc3c(c2)CC(C2CCN(C(=O)OC(C)C)CC2)O3)cn1` (centres unmarked) [Example 174] the figure was 610 nM.
With `CC(C)(C)OC(=O)N1CCC(C2(C)Cc3cc(C4=CCN(S(C)(=O)=O)CC4)ncc3O2)CC1` (centres unmarked) [Example 78, 4-[5-(1-Methanesulfonyl-1,2,3,6-tetrahydro-pyridin-4-yl)-2-methyl-2,3-dihydro-furo[2,3-c]pyridin-2-yl]-piperidine-1-carboxylic acid tert-butyl ester] the figure was 15 nM; with `CC(C)(C)OC(=O)N1CCC([C@@]2(C)Cc3cc(-c4ccc(S(C)(=O)=O)cc4)ncc3O2)CC1` [Example 84, (R)-4-[5-(4-Methanesulfonyl-phenyl)-2-methyl-2,3-dihydro-furo[2,3-c]pyridin-2-yl]-piperidine-1-carboxylic acid tert-butyl ester], 172 nM; with `CCS(=O)(=O)c1ccc(-c2cc3c(cn2)OC(C2CCN(C(=O)OC(C)(C)C)CC2)C3)cc1` (centres unmarked) [Example 66, 4-[5-(4-Ethanesulfonyl-phenyl)-2,3-dihydro-furo[2,3-c]pyridin-2-yl]-piperidine-1-carboxylic acid tert-butyl ester], 12 nM.
In turn, `CC(=O)Nc1ccc(-c2ccc3c(c2)CC(C2CCN(C(=O)OC(C)C)CC2)O3)cc1` (centres unmarked) [Example 164] had an EC50 of 89 nM. Against the preceding compound, the EC50 is about 7.4-fold higher.
With `Cc1cc(-c2ccc3c(c2)CC(C2CCN(C(=O)OC(C)C)CC2)O3)cnc1C#N` (centres unmarked) [Example 9, 4-[5-(6-Cyano-5-methyl-pyridin-3-yl)-2,3-dihydro-benzofuran-2-yl]-piperidine-1-carboxylic acid isopropyl ester] the figure was 432 nM; with `CC(C)OC(=O)N1CCC(C2Cc3cc(-c4cnn(C)c4)ccc3O2)CC1` (centres unmarked) [Example 168], 1910 nM.
With `CC(C)OC(=O)N1CCC(C2Cc3cc(-c4ccncc4F)ccc3O2)CC1` (centres unmarked) [Example 113] the figure was 167 nM.
Consider `CC(C)(C)OC(=O)N1CCC(C2Cc3cc(-c4ccncc4C#N)ccc3O2)CC1` (centres unmarked) [Example 43, 4-[5-(3-Cyano-pyridin-4-yl)-2,3-dihydro-benzofuran-2-yl]-piperidine-1-carboxylic acid tert-butyl ester], for which the 50% effective concentration (EC50) is 269 nM. This EC50 lies about 1.6-fold higher than the previous one.
As to `CC(C)OC(=O)N1CCC(C2Cc3cc(-c4ccc(S(C)(=O)=O)c(F)c4)ccc3O2)CC1` (centres unmarked) [Example 118], the EC50 was 15 nM.
With `CC(O)CNC(=O)c1ccc(-c2ccc3c(c2)CC(C2CCN(C(=O)OC(C)C)CC2)O3)cc1` (centres unmarked) [Example 129] the figure was 73 nM; with `CC(C)OC(=O)N1CCC(C2Cc3cc(-c4ccc(CC(=O)NCC#N)cc4)ccc3O2)CC1` (centres unmarked) [Example 134], 100 nM; with `CC(C)OC(=O)N1CCC(C2Cc3cc(-c4ccc(C#N)s4)ccc3O2)CC1` (centres unmarked) [Example 170], 62 nM.
With `COc1cnnc(-c2ccc3c(c2)CC(C2CCN(C(=O)OC(C)C)CC2)O3)c1` (centres unmarked) [Example 167] the figure was 845 nM; with `CC(C)(C)OC(=O)N1CCC([C@H]2Cc3nc(-c4ccc(S(C)(=O)=O)cc4)ncc3O2)CC1` [Example 74, (R)-4-[2-(4-Methanesulfonyl-phenyl)-6,7-dihydro-furo[3,2-d]pyrimidin-6-yl]-piperidine-1-carboxylic acid tert-butyl ester], 218 nM; with `CS(=O)(=O)N1CC=C(c2cc3c(cn2)OC(C2CCN(C(=O)OC4CCC4)CC2)C3)CC1` (centres unmarked) [Example 96, 4-[5-(1-Methanesulfonyl-1,2,3,6-tetrahydro-pyridin-4-yl)-2,3-dihydro-furo[2,3-c]pyridin-2-yl]-piperidine-1-carboxylic acid cyclobutyl ester], 15 nM.
With `COCCN(C)C(=O)Cc1ccc(-c2ccc3c(c2)CC(C2CCN(C(=O)OC(C)C)CC2)O3)cc1` (centres unmarked) [Example 124] the figure was 70 nM.
On to `COC1CN(C(=O)Cc2ccc(-c3ccc4c(c3)CC(C3CCN(C(=O)OC(C)C)CC3)O4)cc2)C1` (centres unmarked) [Example 146], for which it took 65 nM to reach a half-maximal effect (EC50).
`CC(C)(C)OC(=O)N1CCC(C2Cc3cc(C4=CCN(S(C)(=O)=O)CC4)ccc3O2)CC1` (centres unmarked) [Example 94, 4-[5-(1-Methanesulfonyl-1,2,3,6-tetrahydro-pyridin-4-yl)-2,3-dihydro-benzofuran-2-yl]-piperidine-1-carboxylic acid tert-butyl ester] returned an EC50 of 7 nM.
With `CC(C)OC(=O)N1CCC(C2Cc3cc(-c4ccc(CS(C)(=O)=O)cc4)ncc3O2)CC1` (centres unmarked) [Example 62, 4-[5-(4-Methanesulfonylmethyl-phenyl)-2,3-dihydro-furo[2,3-c]pyridin-2-yl]-piperidine-1-carboxylic acid isopropyl ester] the figure was 36 nM.
With `CC(C)(C)OC(=O)N1CCC(C2Cc3cc(-c4ccc(CS(C)(=O)=O)cc4F)ncc3O2)CC1` (single isomer, unassigned) [Example 75] the figure was 14 nM; with `Cc1cc(S(C)(=O)=O)ncc1-c1ccc2c(c1)CC(C1CCN(C(=O)OC(C)C)CC1)O2` (centres unmarked) [Example 19, 4-[5-(6-Methanesulfonyl-4-methyl-pyridin-3-yl)-2,3-dihydro-benzofuran-2-yl]-piperidine-1-carboxylic acid isopropyl ester], 1000 nM; with `COc1cc(-c2ccc3c(c2)CC(C2CCN(C(=O)OC(C)C)CC2)O3)ccc1C#N` (centres unmarked) [Example 119], 855 nM.
With `CC(C)OC(=O)N1CCC(C2Cc3cc(-c4ccc(CC#N)cc4)ccc3O2)CC1` (centres unmarked) [Example 105] the figure was 99 nM; with `CC(C)(C)OC(=O)N1CCC(C2Cc3cc(-c4ccnnc4)ncc3O2)CC1` (centres unmarked) [Example 54, 4-(5-Pyridazin-4-yl-2,3-dihydro-furo[2,3-c]pyridin-2-yl)-piperidine-1-carboxylic acid tert-butyl ester], 265 nM; with `CC(C)OC(=O)N1CCC(C2Cc3cc(-c4ccc(C(=O)NCC#N)cc4)ccc3O2)CC1` (centres unmarked) [Example 133], 104 nM.
Turning to `CC(C)(C)OC(=O)N1CCC([C@H]2Cc3cc(-c4ccc(S(C)(=O)=O)cn4)ccc3O2)CC1` [Example 72, (R)-4-[5-(5-Methanesulfonyl-pyridin-2-yl)-2,3-dihydro-benzofuran-2-yl]-piperidine-1-carboxylic acid tert-butyl ester], a half-maximal response (EC50) required 97 nM.
With `CC(C)OC(=O)N1CCC(C2Cc3cc(-c4ccc(C(=O)NCCC(C)(C)O)cc4)ccc3O2)CC1` (centres unmarked) [Example 147] the figure was 113 nM.
In the case of `CC(C)(C)OC(=O)N1CCC(C2Cc3cc(-c4ccc(S(C)(=O)=O)cc4)ncc3O2)CC1` (centres unmarked) [Example 15, 4-[5-(4-Methanesulfonyl-phenyl)-2,3-dihydro-furo[2,3-c]pyridin-2-yl]-piperidine-1-carboxylic acid tert-butyl ester], the midpoint of the response, the EC50, lay at 9 nM.
With `CC(C)(C)OC(=O)N1CCC(C2(C)Cc3cc(C4CCN(S(C)(=O)=O)CC4)ncc3O2)CC1` (centres unmarked) [Example 81, 4-[5-(1-Methanesulfonyl-piperidin-4-yl)-2-methyl-2,3-dihydro-furo[2,3-c]pyridin-2-yl]-piperidine-1-carboxylic acid tert-butyl ester] the figure was 53 nM; with `CC(C)OC(=O)N1CCC(C2Cc3cc(-c4cncnc4)ccc3O2)CC1` (centres unmarked) [Example 16, 4-(5-Pyrimidin-5-yl-2,3-dihydro-benzofuran-2-yl)-piperidine-1-carboxylic acid isopropyl ester], 186 nM.
With `CC(C)S(=O)(=O)N1CCN(c2cc3c(cn2)OC(C2CCN(C(=O)OC(C)(C)C)CC2)C3)CC1` (centres unmarked) [Example 99, 4-{5-[4-(Propane-2-sulfonyl)-piperazin-1-yl]-2,3-dihydro-furo[2,3-c]pyridin-2-yl}-piperidine-1-carboxylic acid tert-butyl ester] the figure was 48 nM.
In turn, `CCNC(=O)c1ccc(-c2cc3c(cn2)OC(C2CCN(C(=O)OC(C)(C)C)CC2)C3)cc1` (centres unmarked) [Example 32, 4-[5-(4-Ethylcarbamoyl-phenyl)-2,3-dihydro-furo[2,3-c]pyridin-2-yl]-piperidine-1-carboxylic acid tert-butyl ester] came in with an EC50 of 21 nM. Against the preceding compound, the EC50 is about 2.3-fold lower.
With `COC1CCN(C(=O)Cc2ccc(-c3ccc4c(c3)CC(C3CCN(C(=O)OC(C)C)CC3)O4)cc2)CC1` (centres unmarked) [Example 128] the figure was 57 nM.
